Where two headings read alike, the source gives them in different places.
Columns and labels:
[1] = tested on: HUVEC (human umbilical vein endothelial cells); test: Cytotoxicity on HUVEC (CCK8), IC50 of polidocanols with different chain lengths; type: cell-based; settings: in words, values of Table 8 not in this copy
[2] = Foaming efficiency of 1% solutions (foam drainage, half-life, coalescence); type: physicochemical; settings: 1% solution, 20 pumps
rabbit ear marginal vein = test: Venous sclerosis after single injection of foam preparation into rabbit marginal ear vein (effective rate, appearance); type: in vivo, New Zealand rabbit; settings: for Effective rate of venous sclerosis compared with positive control low-dose group: in words
[3] = tested on: marginal ear vein of rabbits; test: Venous pathological sections 14 days after injection into rabbit marginal ear vein; type: in vivo, New Zealand rabbit; settings: for Pathological score of rabbit ear blood vessels compared with positive low-dose control group: in words
[4] = 14 days after intravenous injection into rabbit ear margin

CCCCCCCCCCCCOCCOCCOCCOCCO [DD-PEG4-OH]
IC50 value compared with polidocanol group [1]: greater than that of the polidocanol group | Foam half-life time (FHT), in words ([2]; even if a small amount of foam is formed): disappear in a very short time | Foam formation ([2]; in words, listed as P4): it is difficult for the P4 sample to form foam

CCCCCCCCCCCCOCCOCCOCCOCCOCCOCCOCCOCCOCCOCCO [DD-PEG10-OH]
IC50 value compared with polidocanol group [1]: smaller than those of the polidocanol group | Foam drainage time (FDT), precipitation time of liquid, in words ([2]; relative to other samples): relatively slow | Effective rate of venous sclerosis (rabbit ear marginal vein; [4]): above 83.33% | Effective rate of venous sclerosis compared with positive control low-dose group (rabbit ear marginal vein; 14 days): not lower than the positive control low-dose group | Effective rate of venous sclerosis compared with positive control low-dose group (rabbit ear marginal vein; 21 days): higher than the positive control low-dose group | Pathological changes in blood vessels, high magnification [3]: a large number of fibroblast proliferations can be seen in the lumen, and red blood cells are scattered among local fibroblasts; new capillaries and macrophages that phagocytose hemosiderin can be seen locally | Pathological changes in blood vessels, low magnification [3]: The tissue structure of each layer of the wall is unclear and the blood vessel lumen is occluded | Pathological score of rabbit ear blood vessels compared with positive low-dose control group [3]: higher than those of the positive low-dose control group

CCCCCCCCCCCCOCCOCCOCCOCCOCCOCCOCCOCCOCCOCCOCCO [DD-PEG11-OH]
IC50 value compared with polidocanol group [1]: smaller than those of the polidocanol group | Effective rate of venous sclerosis (rabbit ear marginal vein; [4]): above 83.33% | Effective rate of venous sclerosis compared with positive control low-dose group (rabbit ear marginal vein; 14 days): not lower than the positive control low-dose group | Effective rate of venous sclerosis compared with positive control low-dose group (rabbit ear marginal vein; 21 days): higher than the positive control low-dose group | Pathological changes in blood vessels, high magnification [3]: a large number of fibroblast proliferations can be seen in the lumen, and red blood cells are scattered among local fibroblasts; new capillaries and macrophages that phagocytose hemosiderin can be seen locally | Pathological changes in blood vessels, low magnification [3]: The tissue structure of each layer of the wall is unclear and the blood vessel lumen is occluded | Pathological score of rabbit ear blood vessels compared with positive low-dose control group [3]: higher than those of the positive low-dose control group

CCCCCCCCCCCCOCCOCCOCCOCCOCCOCCOCCOCCOCCOCCOCCOCCOCCOCCOCCOCCOCCOCCOCCOCCOCCOCCOCCOCCO [DD-PEG24-OH]
IC50 value compared with polidocanol group [1]: greater than that of the polidocanol group | Foam coalescence time (FCT), time for foam to completely disappear [2]: about 4.25 min

CCCCCCCCCCCCOCCOCCOCCOCCOCCOCCOCCOCCOCCOCCOCCOCCO [DD-PEG12-OH]
IC50 value compared with polidocanol group [1]: smaller than those of the polidocanol group

CCCCCCCCCCCCOCCOCCOCCOCCOCCOCCOCCOCCO [DD-PEG8-OH]
IC50 value compared with polidocanol group [1]: smaller than those of the polidocanol group | Appearance of veins (rabbit ear marginal vein; 14 days after administration): some Blood vessels are blocked | Effective rate of venous sclerosis (rabbit ear marginal vein; [4]): above 83.33% | Effective rate of venous sclerosis compared with positive control low-dose group (rabbit ear marginal vein; 14 days): not lower than the positive control low-dose group | Appearance of veins (rabbit ear marginal vein; 21 days after administration): some blood vessels in the rabbit ear Completely blocked | Effective rate of venous sclerosis compared with positive control low-dose group (rabbit ear marginal vein; 21 days): higher than the positive control low-dose group | Pathological changes in blood vessels, high magnification [3]: a large number of fibroblast proliferations can be seen in the lumen, and red blood cells are scattered among local fibroblasts; new capillaries and macrophages that phagocytose hemosiderin can be seen locally | Pathological changes in blood vessels, low magnification [3]: The tissue structure of each layer of the wall is unclear and the blood vessel lumen is occluded | Pathological score of rabbit ear blood vessels compared with positive low-dose control group [3]: higher than those of the positive low-dose control group

CCCCCCCCCCCCOCCOCCOCCOCCOCCOCCOCCOCCOCCO [DD-PEG9-OH]
IC50 value compared with polidocanol group [1]: smaller than those of the polidocanol group | Appearance of veins (rabbit ear marginal vein; 14 days after administration, low-dose group): some Blood vessels are blocked | Effective rate of venous sclerosis (rabbit ear marginal vein; 14 days, P9 high-dose group): above 83.33% | Effective rate of venous sclerosis compared with positive control low-dose group (rabbit ear marginal vein; 14 days, P9 high-dose group): not lower than the positive control low-dose group | Effective rate of venous sclerosis (rabbit ear marginal vein; 14 days, P9 low-dose group): above 83.33% | Effective rate of venous sclerosis compared with positive control low-dose group (rabbit ear marginal vein; 14 days, P9 low-dose group): not lower than the positive control low-dose group | Appearance of veins (rabbit ear marginal vein; 21 days after administration, low-dose group): some blood vessels in the rabbit ear Completely blocked | Effective rate of venous sclerosis compared with positive control low-dose group (rabbit ear marginal vein; 21 days, P9 high-dose group): higher than the positive control low-dose group | Effective rate of venous sclerosis compared with positive control low-dose group (rabbit ear marginal vein; 21 days, P9 low-dose group): higher than the positive control low-dose group | Pathological score of rabbit ear blood vessels compared with positive low-dose control group ([3]; P9 high-dose group): higher than those of the positive low-dose control group | Pathological score of rabbit ear blood vessels compared with positive low-dose control group ([3]; P9 low-dose group): higher than those of the positive low-dose control group | Pathological changes in blood vessels, high magnification ([3]; high-dose group): a large number of fibroblast proliferations can be seen in the lumen, and red blood cells are scattered among local fibroblasts; new capillaries and macrophages that phagocytose hemosiderin can be seen locally | Pathological changes in blood vessels, low magnification ([3]; high-dose group): The tissue structure of each layer of the wall is unclear and the blood vessel lumen is occluded | Pathological changes in blood vessels, high magnification ([3]; low-dose group): a large number of fibroblast proliferations can be seen in the lumen, and red blood cells are scattered among local fibroblasts; new capillaries and macrophages that phagocytose hemosiderin can be seen locally | Pathological changes in blood vessels, low magnification ([3]; low-dose group): The tissue structure of each layer of the wall is unclear and the blood vessel lumen is occluded

From patent WO2023227069A1, “Polidocanol with single molecular weight, and use thereof” (Jenkem Technology Co Ltd, priority 2022, dated 2023)
